In US20020137929A1, “1 - (3-heterocyclylphenyl) isothiourea, -isourea, -guanidine and -amidine herbicidal agents” (Intellectual Property Department, BASF Aktiengesellschaft, priority 1998, published 2002):

Experiments:
ABUTH (Velvetleaf) [1] = test: Preemergence herbicidal evaluation; format: in vivo, Abutilon theophrasti; details: preemergence, rated 4-5 weeks after treatment, 0-9 scale
Summary of the method: (§1)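 Seeds were planted in potting soil in cups, then sprayed preemergence with the test compound in aqueous acetone at about 0.0156 to 0.500 kg per hectare. Cups were kept under greenhouse conditions and visually rated 4–5 weeks after treatment on a 0–9 scale against an untreated control.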

CASOB (Sicklepod) = test: Preemergence herbicidal evaluation; format: in vivo, Cassia obtusifolia; details: preemergence, rated 4-5 weeks after treatment, 0-9 scale
Summary of the method: as §1

[2] = test system: TRZAWR (Wheat, Winter, cv Riband); test: Postemergence herbicidal evaluation; format: in vivo, Triticum aestivum; details: postemergence
Summary of the method: (§2)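 Each compound, dispersed in an acetone/water mix (50/50) carrying 0.5% TWEEN 20, is nozzle-sprayed at 40 psi on approximately two-week-old seedlings at about 0.0156–0.500 kg/ha. Plants are assessed 4–5 weeks afterward on a 0–9 scale relative to control; duplicate tests are averaged.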

[3] = test system: SAGPY (Arrowhead (Pygmaea)); test: Preemergence weed control under flooded paddy conditions; format: in vivo, Sagittaria pygmaea; details: rated 3-4 weeks after treatment
Summary of the method: (§3)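 Using flooded silt loam (water 1.5 to 3 cm deep), seeds sown in the top 0.5 cm were exposed preemergence to compound pipetted into the flood at about 0.0313 to 0.500 kg/ha. Effects were scored 0-9 by eye three to four weeks later.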

CYPIR (Rice Flatsedge) = test: Postemergence weed control under flooded paddy conditions; format: in vivo, Cyperus iria; details: postemergence weeds, rated 3 to 4 weeks after treatment
Summary of the method: (§4)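 Containers holding 3–5 cm weeds and rice at 1.5–2.5 leaves are flooded to 1.5–3 cm above soil. Compound in 50/50 v/v aqueous/acetone is then added directly to the water, about 0.0313–0.500 kg/ha. Plants are kept in the greenhouse and rated 0–9 visually at 3–4 weeks.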

ABUTH (Velvetleaf) [4] = test: Postemergence herbicidal evaluation; format: in vivo, Abutilon theophrasti; details: postemergence
Summary of the method: as §2

[5] = test system: GLXMAW (Soybean, Williams); test: Postemergence herbicidal evaluation; format: in vivo, Glycine max, (L.) Merr. cv Williams; details: postemergence
Summary of the method: as §2

ORYSAT (Rice, Tebonnet) = test: Postemergence herbicidal evaluation; format: in vivo, Oryza sativa, (L.) Tebonnet; details: postemergence
Summary of the method: as §2

[6] = test system: SAGPY (Arrowhead (Pygmaea)); test: Postemergence weed control under flooded paddy conditions; format: in vivo, Sagittaria pygmaea; details: postemergence weeds, rated 3 to 4 weeks after treatment
Summary of the method: as §4

ECHCG (Barnyardgrass) = test: Postemergence herbicidal evaluation; format: in vivo, Echinochloa crus-galli; details: postemergence
Summary of the method: as §2

AMBEL (Ragweed, Common) = test: Postemergence herbicidal evaluation; format: in vivo, Ambrosia artemisifolia; details: postemergence
Summary of the method: as §2

SETVI (Foxtail, Green) [7] = test: Postemergence herbicidal evaluation; format: in vivo, Setaria viridis; details: postemergence
Summary of the method: as §2

MOOVA (Monochoria) = test: Preemergence weed control under flooded paddy conditions; format: in vivo, Monochoria vaginalis; details: rated 3-4 weeks after treatment
Summary of the method: as §3

SETVI (Foxtail, Green) [8] = test: Preemergence herbicidal evaluation; format: in vivo, Setaria viridis; details: preemergence, rated 4-5 weeks after treatment, 0-9 scale
Summary of the method: as §1

With `C=CCN1C(=O)C(CC(=O)NOC)SC1=Nc1cc(-n2c(=O)cc(C(F)(F)F)n(C)c2=O)c(F)cc1Cl` (centres unmarked) [Compound 85] the ABUTH rating (ABUTH (Velvetleaf) [1]; 0.0156 kg/ha) was 0.0, the ABUTH rating (ABUTH (Velvetleaf) [1]; 0.0313 kg/ha) was 9.0 and the ABUTH rating (ABUTH (Velvetleaf) [1]; 0.0625 kg/ha) was 9.0. For the same compound, the ABUTH rating (ABUTH (Velvetleaf) [1]; 0.1250 kg/ha) was 9.0, the ABUTH rating (ABUTH (Velvetleaf) [1]; 0.2500 kg/ha) was 9.0 and the ABUTH rating (ABUTH (Velvetleaf) [1]; 0.5000 kg/ha) was 9.0. For the same compound, the CASOB rating (CASOB (Sicklepod); 0.0156 kg/ha) was 0.0, the CASOB rating (CASOB (Sicklepod); 0.0313 kg/ha) was 0.0 and the CASOB rating (CASOB (Sicklepod); 0.0625 kg/ha) was 0.0. It also gave a CASOB rating (CASOB (Sicklepod); 0.1250 kg/ha) of 0.0, a CASOB rating (CASOB (Sicklepod); 0.2500 kg/ha) of 0.0 and a CASOB rating (CASOB (Sicklepod); 0.5000 kg/ha) of 9.0. The TRZAWR herbicidal rating ([2]; rate 0.0156 kg/ha) was 3.0, the TRZAWR herbicidal rating ([2]; rate 0.0313 kg/ha) was 3.5 and the TRZAWR herbicidal rating ([2]; rate 0.0625 kg/ha) was 4.5. For the same compound, the TRZAWR herbicidal rating ([2]; rate 0.1250 kg/ha) was 5.0, the “SAGPY herbicidal effect rating” value ([3]; 0.0313 kg/ha) was 3.0 and the “SAGPY herbicidal effect rating” value ([3]; 0.0625 kg/ha) was 3.0. For the same compound, the “SAGPY herbicidal effect rating” value ([3]; 0.1250 kg/ha) was 9.0, the “SAGPY herbicidal effect rating” value ([3]; 0.2500 kg/ha) was 9.0 and the “Herbicidal rating CYPIR” value (CYPIR (Rice Flatsedge); Rate 0.0313 kg/ha) was 3.0. For the same compound, the “Herbicidal rating CYPIR” value (CYPIR (Rice Flatsedge); Rate 0.0625 kg/ha) was 7.0, the “Herbicidal rating CYPIR” value (CYPIR (Rice Flatsedge); Rate 0.1250 kg/ha) was 9.0 and the “Herbicidal rating CYPIR” value (CYPIR (Rice Flatsedge); Rate 0.2500 kg/ha) was 9.0. For the same compound, the ABUTH herbicidal rating (ABUTH (Velvetleaf) [4]; rate 0.0156 kg/ha) was 9.0, the ABUTH herbicidal rating (ABUTH (Velvetleaf) [4]; rate 0.0313 kg/ha) was 9.0 and the ABUTH herbicidal rating (ABUTH (Velvetleaf) [4]; rate 0.0625 kg/ha) was 9.0. It also gave an ABUTH herbicidal rating (ABUTH (Velvetleaf) [4]; rate 0.1250 kg/ha) of 9.0, a GLXMAW herbicidal rating ([5]; rate 0.0156 kg/ha) of 4.5 and a GLXMAW herbicidal rating ([5]; rate 0.0313 kg/ha) of 6.0. It also gave a GLXMAW herbicidal rating ([5]; rate 0.0625 kg/ha) of 6.0, a GLXMAW herbicidal rating ([5]; rate 0.1250 kg/ha) of 7.5 and an ORYSAT herbicidal rating (ORYSAT (Rice, Tebonnet); rate 0.0156 kg/ha) of 1.0. For the same compound, the ORYSAT herbicidal rating (ORYSAT (Rice, Tebonnet); rate 0.0313 kg/ha) was 1.0, the ORYSAT herbicidal rating (ORYSAT (Rice, Tebonnet); rate 0.0625 kg/ha) was 1.5 and the ORYSAT herbicidal rating (ORYSAT (Rice, Tebonnet); rate 0.1250 kg/ha) was 2.5. For the same compound, the “Herbicidal rating SAGPY” value ([6]; Rate 0.0313 kg/ha) was 3.0, the “Herbicidal rating SAGPY” value ([6]; Rate 0.0625 kg/ha) was 3.0 and the “Herbicidal rating SAGPY” value ([6]; Rate 0.1250 kg/ha) was 9.0. For the same compound, the “Herbicidal rating SAGPY” value ([6]; Rate 0.2500 kg/ha) was 9.0, the ECHCG herbicidal rating (ECHCG (Barnyardgrass); rate 0.0156 kg/ha) was 0.0 and the ECHCG herbicidal rating (ECHCG (Barnyardgrass); rate 0.0313 kg/ha) was 0.0. It also gave an ECHCG herbicidal rating (ECHCG (Barnyardgrass); rate 0.0625 kg/ha) of 0.0, an ECHCG herbicidal rating (ECHCG (Barnyardgrass); rate 0.1250 kg/ha) of 9.0 and an AMBEL herbicidal rating (AMBEL (Ragweed, Common); rate 0.0156 kg/ha) of 9.0. It also gave an AMBEL herbicidal rating (AMBEL (Ragweed, Common); rate 0.0313 kg/ha) of 9.0, an AMBEL herbicidal rating (AMBEL (Ragweed, Common); rate 0.0625 kg/ha) of 9.0 and an AMBEL herbicidal rating (AMBEL (Ragweed, Common); rate 0.1250 kg/ha) of 9.0. The SETVI herbicidal rating (SETVI (Foxtail, Green) [7]; rate 0.0156 kg/ha) was 0.0, the SETVI herbicidal rating (SETVI (Foxtail, Green) [7]; rate 0.0313 kg/ha) was 0.0 and the SETVI herbicidal rating (SETVI (Foxtail, Green) [7]; rate 0.0625 kg/ha) was 9.0. For the same compound, the SETVI herbicidal rating (SETVI (Foxtail, Green) [7]; rate 0.1250 kg/ha) was 9.0, the “MOOVA herbicidal effect rating” value (MOOVA (Monochoria); 0.0313 kg/ha) was 9.0 and the “MOOVA herbicidal effect rating” value (MOOVA (Monochoria); 0.0625 kg/ha) was 9.0. The “MOOVA herbicidal effect rating” value (MOOVA (Monochoria); 0.1250 kg/ha) was 9.0, the “MOOVA herbicidal effect rating” value (MOOVA (Monochoria); 0.2500 kg/ha) was 9.0 and the SETVI rating (SETVI (Foxtail, Green) [8]; 0.0156 kg/ha) was 0.0. For the same compound, the SETVI rating (SETVI (Foxtail, Green) [8]; 0.0313 kg/ha) was 0.0, the SETVI rating (SETVI (Foxtail, Green) [8]; 0.0625 kg/ha) was 0.0 and the SETVI rating (SETVI (Foxtail, Green) [8]; 0.1250 kg/ha) was 0.0. It also gave an SETVI rating (SETVI (Foxtail, Green) [8]; 0.2500 kg/ha) of 9.0 and an SETVI rating (SETVI (Foxtail, Green) [8]; 0.5000 kg/ha) of 9.0.
